Measured values published in US20250002470A1, “NITROGEN-CONTAINING COMPOUND, PREPARATION METHOD THEREFOR AND APPLICATION THEREOF” (ZHEJIANG AIXPLORER BIOTECH CO., LTD., priority 2021, published 2025).
pIC50: −log10 of the molar value.

Assays:
IL-18 = IL-18 cytokine in LPS-induced sepsis mouse model; assay type: in vivo, C57BL/6J mice; details: for IL-18: given 30 minutes before LPS (10 mg/kg i.p.), serum 2 hours after LPS
Protocol: The purpose of this study was to investigate and evaluate the inhibitory effect of the test compound on […] and IL-18 cytokine production in a mouse model of lipopolysaccharide (LPS)-induced sepsis.
6-8 weeks female C57BL/6J mice, randomized, 5 animals in the Naïve group, and the rest of the groups (vehicle group, 15 mg/kg group with embodiment 33 compound, 50 mg/kg group with embodiment 33 compound and 150 mg/kg group with embodiment 33 compound, wherein 15 mg/kg, 50 mg/kg and 150 mg/kg is the dosage of embodiment 33, mg/kg is referred to as mpk) 10 animals per group. Among them, the Naïve group was not stimulated with LPS, and the 10 mice in each group were intraperitoneally injected with LPS (10 mg/kg) to induce sepsis model in the mouse. The vehicle (corresponding to the vehicle group) and the test compound (corresponding to the 15mpk group of Example 33, the 50mpk group of Example 33 and the 150mpk group of Example 33 respectively) were administered 30 minutes before LPS stimulation. 2 hours after LPS stimulation, the mice were euthanized, and whole blood was collected from the heart and placed in EP tubes, left to stand at room temperature for 1 hour, and centrifuged at 8000 rpm for 10 minutes to collect serum for measurement of cytokines IL-10 and IL-18.
After the kit is taken out of the refrigerator, it should be equilibrated at room temperature (25-28° C.) for 20 minutes; the remaining reagents should be stored at 4° C. immediately after each test.
Prepare an appropriate amount of standard diluent: dilute the standard diluent (5×) to 1× with double-distilled or deionized water. For example, add 10 mL of standard diluent (5×) to 40 mL of water and mix well to obtain a 1× standard. Diluent.
Prepare an appropriate amount of washing liquid: Dilute the washing liquid (20×) with double-distilled or deionized water to 1×. For example, add 10 mL of washing liquid (20×) to 190 mL of water and mix well to obtain a 1×washing liquid.
Standard preparation: Add the standard diluent to one bottle of standard according to the volume (0.5 mL) marked on the standard label, incubate at room temperature for 15 minutes, then mix gently and pipet several times with a pipette to completely dissolve the standard. The final concentration of the standard reaches 1500 pg/mL. Take […] 1.5 mL centrifuge tubes, add 250 μL of standard diluent to each tube in advance, and perform dilutions of the standard to obtain a total of 1500, 750, 375, 187.5, 93.75, 46.875, and 23.4375 pg/mL. standard concentration, and finally add the diluted standard to the pre-coated plate wells in sequence, and add the standard diluent directly as a concentration of 0 pg/mL, for a total of 8 standard concentrations. […]

hERG potassium channel = hERG potassium channel (Homo sapiens, UniProt Q12809); assay: Whole-cell patch-clamp (QPatch) of hERG current in HEK293 cells stably expressing hERG; assay type: cell-based
Sequence of hERG potassium channel (Q12809 whole entry): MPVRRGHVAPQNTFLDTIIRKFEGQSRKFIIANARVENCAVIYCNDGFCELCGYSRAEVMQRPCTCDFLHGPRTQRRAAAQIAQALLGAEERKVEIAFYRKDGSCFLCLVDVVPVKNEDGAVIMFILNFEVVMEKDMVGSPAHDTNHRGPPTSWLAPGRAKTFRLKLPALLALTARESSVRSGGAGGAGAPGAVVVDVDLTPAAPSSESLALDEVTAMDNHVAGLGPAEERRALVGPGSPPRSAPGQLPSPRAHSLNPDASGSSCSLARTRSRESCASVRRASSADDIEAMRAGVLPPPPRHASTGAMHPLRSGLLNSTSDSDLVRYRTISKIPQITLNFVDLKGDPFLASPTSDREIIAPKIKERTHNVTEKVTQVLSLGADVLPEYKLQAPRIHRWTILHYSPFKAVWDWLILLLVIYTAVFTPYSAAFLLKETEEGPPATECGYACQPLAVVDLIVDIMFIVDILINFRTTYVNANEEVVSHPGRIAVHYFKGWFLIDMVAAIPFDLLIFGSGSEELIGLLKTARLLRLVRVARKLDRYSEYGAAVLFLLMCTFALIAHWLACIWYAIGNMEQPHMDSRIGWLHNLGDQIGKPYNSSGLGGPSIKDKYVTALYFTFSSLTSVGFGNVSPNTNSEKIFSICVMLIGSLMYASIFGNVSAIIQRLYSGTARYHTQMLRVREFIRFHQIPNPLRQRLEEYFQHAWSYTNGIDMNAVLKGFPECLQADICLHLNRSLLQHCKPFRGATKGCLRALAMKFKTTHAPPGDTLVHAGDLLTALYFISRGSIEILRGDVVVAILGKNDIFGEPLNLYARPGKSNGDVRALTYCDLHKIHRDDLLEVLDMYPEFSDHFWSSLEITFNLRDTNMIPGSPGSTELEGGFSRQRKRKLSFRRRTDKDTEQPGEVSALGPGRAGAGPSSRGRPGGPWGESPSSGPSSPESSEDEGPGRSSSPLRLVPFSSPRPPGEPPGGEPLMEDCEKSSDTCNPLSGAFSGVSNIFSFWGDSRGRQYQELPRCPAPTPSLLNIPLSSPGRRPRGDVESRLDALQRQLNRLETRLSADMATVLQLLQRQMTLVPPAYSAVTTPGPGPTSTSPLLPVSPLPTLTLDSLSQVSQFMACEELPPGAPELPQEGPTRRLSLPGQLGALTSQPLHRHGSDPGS
Protocol: In this study, a whole-cell patch-clamp technique was used to study the inhibitory effect of compounds on hERG potassium channels and to evaluate the risk of ventricular repolarization toxicity.
The HEK293 cell line stably expressing the hERG potassium channel cells was purchased from Creacell, Inc. (Cat. No. A-0320).
The HEK293 cell line that can stably express the hERG potassium channel, was cultured in DMEM medium containing 10% fetal bovine serum and 0.8 mg/mL G418 at 37° C. and 5% carbon dioxide.
Before the test, the cells were separated with TrypLET Express, centrifuged after adding medium to terminate digestion, resuspended the cell count, adjusted the cell density to 2-3×10^6 cells/mL, and then lightly mixed the cells on a room temperature equilibration shaker for 15-20 min.
Electrophysiological assays were performed using a fully automated patch-clamp QPatch 48 X (Sophion) device. The prepared cells were placed on a centrifuge on the Qpatch bench, the cells were washed using multiple centrifugation/suspension methods, and the cell culture medium was replaced with extracellular fluid. Remove an MTP-96 plate and place it in the location of the MTP source. Remove the QPlate chip and subsequently place the QPlate at the Qplate source location. The robotic arm scans the MTP-96 board and the QPlate chip barcode and grabs it to the measuring station. Draw the intracellular and external fluid from the liquid pool and add them to the intracellular fluid pool, cell and test cell pool of the QPlate chip, respectively. At the measuring station, all measuring sites on the QPlate undergo initial quality control. The quality control process includes aspirating the cell suspension from the cell vessel of the centrifuge and positioning the cells to the chip wells via a pressure controller to establish a high-resistance seal and create a whole-cell recording pattern.
The voltage stimulation protocol for whole-cell patch-clamp recording of whole-cell hERG potassium currents is as follows: the cell membrane voltage clamps at −80 mV when a whole-cell closure is formed. The clamping voltage is depolarized from −80 mV to −50 mV for 0.5 s (as a leakage current detection), then steps to 30 mV for 2.5 s, and then quickly recovers to −50 mV for 4 s to excite the tail current of the hERG channel. The data were collected repeatedly every 10 s to observe the effect of the drug on the hERG tail current. −50 mV stimulation at 0.5 s was used as the leakage current detection. The test data is collected by Qpatch and stored in the connected service station.
First, the current after the effect of each drug concentration and the blank control current are normalized 0, and then the inhibition rate corresponding to each drug concentration is calculated.
Calculate the mean and standard error for each concentration and calculate the semi-inhibitory concentration for each compound using the following Formula:
Y=Bottom+(Top−Bottom)/(1+10^((LogIC50−X)*HillSlope)) The above Formula was used to fit the dose-dependent effect nonlinearly, where C represents the test substance concentration, IC50 is the semi-inhibitory concentration, and h represents the Hill coefficient. Curve fitting and IC50 calculations were performed using Graphpad software.

Cc1nc(N[C@@H]2CCCC[C@H]2O)nnc1-c1ccc(C(F)(F)F)cc1O [Embodiment 33]
IL-18 (IL-18; 15 mpk): 560.5 ± 46.39
IL-18 (IL-18; 50 mpk): 320.1 ± 29.69
IL-18 (IL-18; 150 mpk): 216.2 ± 9.238
inhibitory effect on IL-18 compared with the Vehicle group (IL-18; two doses of 50 mg/kg and 150 mg/kg): significant inhibitory effect
pIC50 (hERG potassium channel): < 4.52
